Tests used:
[1] = test system: M1R relative to M(2)-M(5); details: cited from earlier work
M1R = details: cited from earlier work
[2] = test system: AMP-activated protein kinase (AMPK); assay: Phosphorylation of AMPK in cultured sensory neurons (Western blot); type: cell-based, rat; details: 10 μM
Experimental: Samples were taken immediately (time 0) and then after 15 min, 30 min, 60 min, and 6 hr of incubation. Quantitative Western blotting was performed as following the procedure taught in Example 5. DRG homogenates of 5-10 μg of protein were resolved on a 10% SDS-PAGE gel and electroblotted onto nitrocellulose membrane. Blots were then blocked in 5% nonfat milk containing 0.05% Tween-20, rinsed in PBS (pH 7.4) and incubated with the following antibodies: (i) polyclonal anti-phospho AMPK (on Thr-172, 1:1000, Cell Signaling Technology, Danvers, MA, US), and (ii) extracellular signal-regulated kinase (T-ERK; 1:2000, Covance, Princeton, NJ, US). The blots were rinsed, incubated in Western blotting Luminol Reagent (Santa Cruz Biotechnology Inc., Santa Cruz, CA, US) and imaged using a BioRad Fluor-S image analyzer (BioRad, Hercules, CA, US).

[3] = test system: sensory neurons from DRG of Sprague Dawley rat; assay: Total neurite outgrowth at low concentrations of M1R antagonists (immunostaining); type: cell-based; details: 24 hr culture
Experimental: Sensory neurons from cervical, thoracic and lumbar DRG of an adult 3-4 month old male Sprague Dawley rat were isolated and dissociated using the method described in Example 1, and then were cultured for 24 h in serum-free and insulin-free F12 medium in the presence of modified N2 additives. […] Neurite outgrowth was then assessed after a culture period of 24 hr.
Total neurite lengths (i.e., the sum of the length of all neurites produced by an individual neuron) were assessed using an immunostaining method. […] Four images were captured per well and the replicate well frequency was set to n=6. The neuronal marker β-tubulin III (Sigma-Aldrich Canada Ltd.) was applied to formalin fixed cells. The marker was tagged with the fluorescent conjugate Alexa Fluor 488 (Invitrogen Canada Ltd.). Fluorescent images were collected using an Olympus IX71 inverted microscope with a 20×/0.45 PH1 [sequence] objective that was suitable for resolving images on plastic surfaces. […] Captured image fluorescence was thereafter converted to a grayscale 8-bit image to quantify total pixel volume. […] Total pixel volume of the neuron specific cell bodies and neurites were quantified. […] The net pixel volume was normalized against the number of neuronal cells per quantified field.

[4] = in vivo in mice; cited from earlier work
[5] = test system: STZ-induced diabetic Swiss Webster mice; assay: Reversal of thermal hypoalgesia and IENF loss in STZ-induced diabetic mice, i.p.; type: in vivo, mouse; details: 10 mg/kg i.p. daily for 4 weeks from week 8
Experimental: Swiss Webster (outbred) mice were made diabetic with 2 injections of 90 mg/kg STZ on consecutive days. […] The mice were maintained for 8 weeks after STZ injections. Diabetic neuropathy was well-established in the mice that received STZ injections as evidenced by signs of neuropathy (thermal hypoalgesia). A cohort then received 10 mg/kg VU255035 by i.p. injection daily for 4 weeks.

[6] = test system: sensory neurons from DRG of non-diabetic Sprague Dawley rat; assay: Neurite outgrowth from excised neurons from a normal rat; type: cell-based; details: 24 hr; for neurite outgrowth rates: higher dosages 0.1 to 10.0 μM; for neurite outgrowth: lowest dosage of 0.01 μM
Description: Sensory neurons from cervical, thoracic and lumbar DRG of a 3-4 month old adult male ZDF diabetic rat (model of type 2 diabetes) were isolated and dissociated using a method based on the teachings of Fernyhough et al. (1993, Brain Res. 607:117-124), Gardiner et al. (2005, Mol. Cell Neurosci. 28:229-240), and Huang et al. (2003, Diabetes 52:2129-2136). Briefly, DRG were removed from all spinal levels, their roots trimmed, and then the cells were chemically dissociated in 0.125% collagenase (Worthington Biochemical Corp., Lakewood, NJ, USA) in F12 nutrient medium (Invitrogen Canada Inc., Burlington, ON, Canada) for 1.5 h at 37° C. The ganglia were then mechanically dissociated by treatment with 0.05% trypsin (Worthington Biochemical Corp.) in F12 nutrient medium, followed by trituration with a glass pipette. […] The neuron cells were plated onto poly-L-ornithine-laminin-coated NUNC 48-well or 96-well plastic dishes with optically clear glass bottoms in serum-free and insulin-free F12 medium in the presence of modified N2 additives (containing no insulin) at 37° C. in a 95% air/5% CO2 humidified incubator. All cultures were exposed to the following additional conditions: 10 mM D-glucose, 0.1 nM insulin, 0.3 ng/ml NGF, 1 ng/ml NT-3 and 5 ng/ml GDNF (all obtained from Sigma-Aldrich Canada Ltd.). […] Neurite outgrowth was then assessed at 24 hr as previously described by Fernyhough et al. (1993) and Gardiner et al. (2005).
Sensory neurons from cervical, thoracic and lumbar DRG of a 3-4 month old non-diabetic adult male Sprague Dawley rat were isolated and dissociated using the method described in Example 1. The excised and dissociated neuron cells were plated onto poly-L-ornithine-laminin-coated NUNC 48-well or 96-well plastic dishes with optically clear glass bottoms in serum-free and insulin-free F12 medium in the presence of modified N2 additives (containing no insulin) at 37° C. in a 95% air/5% CO2 humidified incubator. All cultures were exposed to the following additional conditions: 10 mM D-glucose, 0.1 nM insulin, 0.3 ng/ml NGF, 1 ng/ml NT-3 and 5 ng/ml GDNF (all obtained from Sigma-Aldrich Canada Ltd.). […] Neurite outgrowth was then assessed at 24 hr.

In the case of O=C(CCNS(=O)(=O)c1cccc2nsnc12)N1CCN(c2ccncc2)CC1 [VU255035, N-(3-oxo-3-(4-(pyridine-4-yl)piperazin-1-yl)propyl)-benzo[c][1,2,5]thiadiazole-4 sulfonamide], the “selectivity to M1R relative to M2, M3, M4 and M5 receptors” value [1] is listed as 75 times, the “selectivity for M1R relative to M(2)-M(5)” value ([1]; equilibrium radioligand binding and functional studies) is listed as “greater than 75 fold” and the mode of antagonism (M1R) is listed as “competitive orthosteric antagonist of M1R”. For the same molecule, the “total AMPK levels” value [2] was “not affected”, the “phosphorylation of AMPK (P-AMPK) relative to total ERK” value ([2]; 30-60 min) was “maintained phosphorylation” and the “phosphorylation of AMPK (P-AMPK) relative to total ERK” value ([2]; by 15 min) was “significantly raised phosphorylation of AMPK”. For the same molecule, the “phosphorylation of AMPK (P-AMPK) relative to total ERK” value ([2]; by 6 hr) was “return to baseline”, the “concentration that significantly increased total neurite outgrowth” value [3] was no less than 0.03 µM and the “blood brain barrier penetration” value [4] was “excellent blood brain barrier penetration”. The “loss of IENF” value [5] was “significantly reversed loss”, the “loss of SNP” value [5] was “significantly reversed loss” and the thermal hypoalgesia [5] was “significant reversal back to control levels of thermal sensitivity”.
In the case of CN1[C@@H]2CC[C@H]1C[C@@H](OC(=O)C(CO)c1ccccc1)C2 (stereo partly shown) [atropine], the neurite outgrowth rates [6] is reported as “did not further increase neurite outgrowth rates” and the neurite outgrowth [6] is reported as “more than tripled”.
For Cc1scc2c1N(C(=O)CN1CCN(C)CC1)c1ccccc1NC2=O [telenzepine, Telenzepine], the neurite outgrowth rates [6] was “tripled” and the neurite outgrowth [6] was “more than doubled”.

— patent US11925649B2, “Treatments for diabetic neuropathy” (University of Manitoba, priority 2010, dated 2024)
